Measured values published in ChEMBL document CHEMBL1799910, “Optimization of 1,2,3,4-tetrahydroacridin-9(10H)-ones as antimalarials utilizing structure-activity and structure-property relationships” (J Med Chem, 2011).
Converted amounts (≈) assume the structure as drawn.

Legend:
Plasmodium falciparum [1] = assay: Antimalarial activity against chloroquine and pyrimethamine-resistant Plasmodium falciparum W2 infected in human A positive erythrocytes after 72 hrs by SYBR Green I assay; assay type: functional, organism-based; details: W2, 72 h
Plasmodium falciparum [2] = assay: Antimalarial activity against chloroquine, mefloquine, pyrimethamine and atovaquone-resistant Plasmodium falciparum TM90-C2B infected in human A positive erythrocytes after 72 hrs by SYBR Green I assay; assay type: functional, organism-based
Plasmodium falciparum [3] = assay: Resistance index, ratio of EC50 for chloroquine, mefloquine, pyrimethamine and atovaquone-resistant Plasmodium falciparum TM90-C2B to EC50 for chloroquine and pyrimethamine-resistant Plasmodium falciparum W2; assay type: functional
[4] = Aqueous solubility of compound at pH 7.4 by HPLC analysis; details: buffer
[5] = Permeability of the compound by PAMPA method at pH 7.4; assay type: ADME; details: read-out: permeability
[6] = Partition coefficient, log D of the compound at pH 7.4 by HPLC analysis; details: octanol/water
[7] = Cytotoxicity index, ratio of EC50 for mouse J774 cells to EC50 for chloroquine, mefloquine, pyrimethamine and atovaquone-resistant Plasmodium falciparum TM90-C2B; assay type: cell-based; details: read-out: Ratio EC50
J774 = assay: Cytotoxicity against mouse J774 cells after 72 hrs by Cell titer 96 aqueous one solution cell proliferation assay; assay type: cell-based; details: J774, 72 h

## O=C1CC(c2ccc(Cl)cc2Cl)Cc2nc3ccc(Cl)cc3c(O)c21 (centres undefined)
Plasmodium falciparum [1]
  EC50: 8.71 nM
Plasmodium falciparum [2]
  EC50: 27.8 nM
Plasmodium falciparum [3]
  Ratio EC50: 3.19
[4]
  solubility: 1 µM (≈ 0.393 µg/mL)
[5]
  Papp: 20 ×10⁻⁶ cm/s
[6]
  logD: 3.1
[7]
  selectivity ratio: ≥ 100

## Cc1cc2[nH]c3c(c(=O)c2cc1C)CCCC3
Plasmodium falciparum [1]
  EC50: 262 nM
Plasmodium falciparum [2]
  EC50: 216 nM
J774
  EC50: > 20000 nM
[4]
  solubility: 41 µM (≈ 9.32 µg/mL)
[5]
  Papp: 46 ×10⁻⁶ cm/s

## COc1ccc2[nH]c3c(c(=O)c2c1)CCC(C)(C)C3
Plasmodium falciparum [1]
  EC50: > 9720 nM
Plasmodium falciparum [2]
  EC50: > 9720 nM
J774
  EC50: > 5000 nM
[4]
  solubility: 9.2 µM (≈ 2.37 µg/mL)
[5]
  Papp: 128 ×10⁻⁶ cm/s
[6]
  logD: 2.3
[7]
  selectivity ratio: ≥ 100

## Cc1cccc2[nH]c3c(c(=O)c12)CCC(C)(C)C3
Plasmodium falciparum [1]
  EC50: > 9990 nM
Plasmodium falciparum [2]
  EC50: > 9990 nM
J774
  EC50: > 5000 nM
[4]
  solubility: 9 µM (≈ 2.17 µg/mL)
[5]
  Papp: 240 ×10⁻⁶ cm/s
[6]
  logD: 2.8
[7]
  selectivity ratio: ≥ 100

## CC1(C)CCc2c([nH]c3cc(Cl)ccc3c2=O)C1
Plasmodium falciparum [1]
  EC50: 1080 nM
Plasmodium falciparum [2]
  EC50: 645 nM
Plasmodium falciparum [3]
  Ratio EC50: 0.6
J774
  EC50: > 1000 nM
[4]
  solubility: 1 µM (≈ 0.262 µg/mL)
[6]
  logD: 2.9
[7]
  selectivity ratio: ≥ 100

## CC(C)(C)c1cccc2c(=O)c3c([nH]c12)CCCC3
Plasmodium falciparum [1]
  EC50: > 9790 nM
Plasmodium falciparum [2]
  EC50: > 9790 nM
J774
  EC50: > 10000 nM
[4]
  solubility: 90 µM (≈ 23 µg/mL)
[5]
  Papp: 553 ×10⁻⁶ cm/s
[6]
  logD: 3.3
[7]
  selectivity ratio: ≥ 100

## O=c1c2c([nH]c3c(C(F)(F)F)cccc13)CCCC2
Plasmodium falciparum [1]
  EC50: > 9350 nM
Plasmodium falciparum [2]
  EC50: > 9350 nM
J774
  EC50: > 20000 nM
[4]
  solubility: 116 µM (≈ 31 µg/mL)
[5]
  Papp: 246 ×10⁻⁶ cm/s
[6]
  logD: 2.6
[7]
  selectivity ratio: ≥ 100

## Cc1cc(C)c2c(=O)c3c([nH]c2c1)CCCC3
Plasmodium falciparum [1]
  EC50: 3130 nM
Plasmodium falciparum [2]
  EC50: 4830 nM
Plasmodium falciparum [3]
  Ratio EC50: 1.54
[4]
  solubility: 17 µM (≈ 3.86 µg/mL)
[5]
  Papp: 218 ×10⁻⁶ cm/s
[6]
  logD: 2.4
[7]
  selectivity ratio: ≥ 100

## COc1ccc(OC)c2c(=O)c3c([nH]c12)CCCC3
Plasmodium falciparum [1]
  EC50: > 9640 nM
Plasmodium falciparum [2]
  EC50: > 9640 nM
J774
  EC50: > 20000 nM
[4]
  solubility: 105 µM (≈ 27.2 µg/mL)
[5]
  Papp: 9 ×10⁻⁶ cm/s
[6]
  logD: 1.5
[7]
  selectivity ratio: ≥ 100

## COc1ccc2c(=O)c3c([nH]c2c1)CCC3
Plasmodium falciparum [1]
  EC50: 1130 nM
Plasmodium falciparum [2]
  EC50: 610 nM
Plasmodium falciparum [3]
  Ratio EC50: 0.54
J774
  EC50: > 40000 nM
[4]
  solubility: 91 µM (≈ 19.6 µg/mL)
[5]
  Papp: 11 ×10⁻⁶ cm/s
[6]
  logD: 1.5
[7]
  selectivity ratio: ≥ 100

## COc1ccc2c(=O)c3c([nH]c2c1)CCCCC3
Plasmodium falciparum [1]
  EC50: 171 nM
Plasmodium falciparum [2]
  EC50: 153 nM
Plasmodium falciparum [3]
  Ratio EC50: 0.89
J774
  EC50: > 20000 nM
[4]
  solubility: 30 µM (≈ 7.3 µg/mL)
[5]
  Papp: 39 ×10⁻⁶ cm/s
[6]
  logD: 2.1
[7]
  selectivity ratio: ≥ 100

## COc1ccc2c(=O)c3c([nH]c2c1)CCCCCC3
Plasmodium falciparum [1]
  EC50: 146 nM
Plasmodium falciparum [2]
  EC50: 230 nM
Plasmodium falciparum [3]
  Ratio EC50: 1.58
J774
  EC50: > 40000 nM
[4]
  solubility: 98 µM (≈ 25.2 µg/mL)
[5]
  Papp: 73 ×10⁻⁶ cm/s
[6]
  logD: 2.4
[7]
  selectivity ratio: ≥ 100

## O=c1c2c([nH]c3cc(C(F)(F)F)ccc13)CCC2
Plasmodium falciparum [1]
  EC50: 2320 nM
Plasmodium falciparum [2]
  EC50: 438 nM
Plasmodium falciparum [3]
  Ratio EC50: 0.19
J774
  EC50: > 40000 nM
[4]
  solubility: 98 µM (≈ 24.8 µg/mL)
[5]
  Papp: 60 ×10⁻⁶ cm/s
[6]
  logD: 2.3
[7]
  selectivity ratio: ≥ 100

## O=c1c2c([nH]c3cc(C(F)(F)F)ccc13)CCCC2
Plasmodium falciparum [1]
  EC50: 120 nM
Plasmodium falciparum [2]
  EC50: 19 nM
Plasmodium falciparum [3]
  Ratio EC50: 0.16
J774
  EC50: > 20000 nM
[4]
  solubility: 158 µM (≈ 42.2 µg/mL)
[5]
  Papp: 73 ×10⁻⁶ cm/s
[6]
  logD: 2.7
[7]
  selectivity ratio: ≥ 100

## O=c1c2c([nH]c3cc(C(F)(F)F)ccc13)CCCCC2
Plasmodium falciparum [1]
  EC50: 4890 nM
Plasmodium falciparum [2]
  EC50: > 4340 nM
Plasmodium falciparum [3]
  Ratio EC50: >0.88
J774
  EC50: > 10000 nM
[4]
  solubility: 17 µM (≈ 4.78 µg/mL)
[5]
  Papp: 131 ×10⁻⁶ cm/s
[6]
  logD: 3
[7]
  selectivity ratio: ≥ 100

## O=c1c2c([nH]c3cc(C(F)(F)F)ccc13)CCCCCC2
Plasmodium falciparum [1]
  EC50: 4740 nM
Plasmodium falciparum [2]
  EC50: 4230 nM
Plasmodium falciparum [3]
  Ratio EC50: 0.89
J774
  EC50: > 10000 nM
[4]
  solubility: 13 µM (≈ 3.84 µg/mL)
[5]
  Papp: 252 ×10⁻⁶ cm/s
[6]
  logD: 3.2
[7]
  selectivity ratio: ≥ 100

## COc1cccc2c(=O)c3c([nH]c12)CCCC3
Plasmodium falciparum [1]
  EC50: 4770 nM
Plasmodium falciparum [2]
  EC50: 4560 nM
Plasmodium falciparum [3]
  Ratio EC50: 0.95
J774
  EC50: > 20000 nM
[4]
  solubility: 99 µM (≈ 22.7 µg/mL)
[5]
  Papp: 16 ×10⁻⁶ cm/s
[6]
  logD: 1.7
[7]
  selectivity ratio: ≥ 100

## COc1ccc2[nH]c3c(c(=O)c2c1)CCCC3
Plasmodium falciparum [1]
  EC50: 2440 nM
Plasmodium falciparum [2]
  EC50: 2530 nM
Plasmodium falciparum [3]
  Ratio EC50: 1.03
J774
  EC50: > 40000 nM
[4]
  solubility: 78 µM (≈ 17.9 µg/mL)
[5]
  Papp: 16 ×10⁻⁶ cm/s
[6]
  logD: 1.5
[7]
  selectivity ratio: ≥ 100

## COc1cccc2[nH]c3c(c(=O)c12)CCCC3
Plasmodium falciparum [1]
  EC50: 8970 nM
Plasmodium falciparum [2]
  EC50: 5940 nM
Plasmodium falciparum [3]
  Ratio EC50: 0.66
J774
  EC50: > 20000 nM
[4]
  solubility: 76 µM (≈ 17.4 µg/mL)
[5]
  Papp: 17 ×10⁻⁶ cm/s
[6]
  logD: 1.2
[7]
  selectivity ratio: ≥ 100

## Cc1ccc2[nH]c3c(c(=O)c2c1)CCCC3
Plasmodium falciparum [1]
  EC50: 449 nM
Plasmodium falciparum [2]
  EC50: 656 nM
Plasmodium falciparum [3]
  Ratio EC50: 1.46
J774
  EC50: > 40000 nM
[4]
  solubility: 44 µM (≈ 9.38 µg/mL)
[5]
  Papp: 19 ×10⁻⁶ cm/s
[6]
  logD: 1.7
[7]
  selectivity ratio: ≥ 100

## O=c1c2c([nH]c3c(Cl)ccc(Cl)c13)CCCC2
Plasmodium falciparum [1]
  EC50: > 9320 nM
Plasmodium falciparum [2]
  EC50: > 9320 nM
J774
  EC50: > 20000 nM
[4]
  solubility: 108 µM (≈ 29 µg/mL)
[5]
  Papp: 288 ×10⁻⁶ cm/s
[6]
  logD: 2.6
[7]
  selectivity ratio: ≥ 100

## O=c1c2c([nH]c3c(Cl)cc(Cl)cc13)CCCC2
Plasmodium falciparum [1]
  EC50: > 9320 nM
Plasmodium falciparum [2]
  EC50: > 9320 nM
J774
  EC50: > 1000 nM
[4]
  solubility: 1 µM (≈ 0.268 µg/mL)
[5]
  Papp: 252 ×10⁻⁶ cm/s
[6]
  logD: 3
[7]
  selectivity ratio: ≥ 100

## CC(C)Oc1cc2[nH]c3c(c(=O)c2cc1Cl)CCCC3
Plasmodium falciparum [1]
  EC50: 21.3 nM
Plasmodium falciparum [2]
  EC50: 104 nM
Plasmodium falciparum [3]
  Ratio EC50: 4.88
J774
  EC50: > 100 nM
[4]
  solubility: 0.3 µM (≈ 0.0875 µg/mL)
[6]
  logD: 2.9
[7]
  selectivity ratio: ≥ 100

## O=c1c2c([nH]c3cc(Br)ccc13)CCSC2
Plasmodium falciparum [1]
  EC50: 667 nM
Plasmodium falciparum [2]
  EC50: > 8440 nM
J774
  EC50: > 10000 nM
[4]
  solubility: 17 µM (≈ 5.04 µg/mL)
[5]
  Papp: 6.3 ×10⁻⁶ cm/s
[6]
  logD: 0.9
[7]
  selectivity ratio: ≥ 100

## CN1CCc2[nH]c3ccccc3c(=O)c2C1
Plasmodium falciparum [1]
  EC50: > 9990 nM
Plasmodium falciparum [2]
  EC50: > 9990 nM
J774
  EC50: > 20000 nM
[4]
  solubility: 33 µM (≈ 7.07 µg/mL)
[5]
  Papp: 21 ×10⁻⁶ cm/s
[6]
  logD: 1
[7]
  selectivity ratio: ≥ 100

## O=c1c2c([nH]c3ccc(Oc4ccc(F)cc4)cc13)CCCC2
Plasmodium falciparum [1]
  EC50: 169 nM
Plasmodium falciparum [2]
  EC50: 47 nM
Plasmodium falciparum [3]
  Ratio EC50: 0.28
J774
  EC50: > 5000 nM
[4]
  solubility: 8 µM (≈ 2.47 µg/mL)
[6]
  logD: 2.8
[7]
  selectivity ratio: ≥ 100

## CN(C)CCC/N=C1\CC(c2ccc(Cl)cc2Cl)Cc2nc3ccc(Cl)cc3c(O)c21 (racemic)
Plasmodium falciparum [1]
  EC50: 25 nM
Plasmodium falciparum [2]
  EC50: 300 nM
Plasmodium falciparum [3]
  Ratio EC50: 12
[7]
  selectivity ratio: ≥ 100

## C[C@H]1[C@@H](O)O[C@@H]2O[C@@]3(C)CC[C@H]4[C@H](C)CC[C@@H]1[C@@]24OO3 [ARTENIMOL]
Plasmodium falciparum [1]
  EC50: 1.8 nM
Plasmodium falciparum [2]
  EC50: 0.9 nM

## O=C1C(O)=C([C@H]2CC[C@H](c3ccc(Cl)cc3)CC2)C(=O)c2ccccc21 [ATOVAQUONE]
Plasmodium falciparum [1]
  EC50: 0.53 nM
Plasmodium falciparum [2]
  EC50: > 170 nM
